Measurements from US10624866B2, “Composition for prevention or treatment of chronic pain comprising Evans blue” (THE INDUSTRY & ACADEMIC COOPERATION IN CHUNGNAM NATIONAL …, priority 2018, dated 2020).

Experiments:
[1] = tested on: animal model of SNL neuropathic pain; test: von Frey filament test (mechanical allodynia) in spinal nerve ligation (SNL) model of neuropathic pain; assay type: in vivo, Sprague-Dawley rats
Description: 5-week-old male SD white rats (Sprague-Dawley rats, 150 to 180 g) were purchased and were kept in an environment where each of night and day was continuously kept for 12 hours, and the temperature was maintained at 22±2° C. Further, water and feed were freely available for rats, and the rats were fed three or less per cage. At 6 weeks of age after adapted in an experimental environment for 7 days before the experiment, the rats responsive to stimulation of 8 g or more of von Frey filament were only selected, and then the spinal nerve ligation (SNL) procedure was performed thereon, inducing neuropathic pain (NPP). More specifically, after general anesthesia with respiratory anesthesia with isoflurane, the left lumbar (L6) […] was carefully removed for differentiation of the L4 and L5 spinal nerves (FIGS. 1A to 1B), and then the L5 spinal nerve was ligated with a silk suture thread (3-0), and the wound was sutured to prepare an experimental animal model of SNL neuropathic pain (FIGS. 1C to 1D). The analgesic effect of Evans blue of the present disclosure was confirmed by measuring mechanical hyperalgesia using the animal model of neuropathic pain. The von Frey filament test (test for mechanical allodynia) is a method for measuring the degree of mechanical allodynia after animal pain modeling. The rats were placed in an acrylic box disposed on a wire mesh test bench with a mesh size of 2×2 mm and adapted for at least 15 minutes. After the rats became quiet in movement, the pain threshold values (g) of the rat were evaluated using the von Frey filaments (Stoelting, USA) having a thickness of 0.4, 0.6, 1, 2, 4, 6, 8, and 15 g. […] The central part thereof was stimulated with von Frey filaments. When there was a positive reaction, stimulation was performed with weak filaments. When there was no positive reaction, stimulation was performed with strong filaments. As a result, the reduction of the pain threshold for the von Frey filament test on the seventh day after the pain model surgery was the maximum. From the seventh day when the reduction of the pain threshold for the von Frey filament test after the pain model surgery was the maximum, Evans blue (EB) was injected intrathecal injection with a Hamilton syringe, and the hind paw of the […] was stimulated with the von Frey filament to the measure minimum pain threshold. Changes in pain threshold were measured after 2 hours, 1 day, 2 days, 3 days, 5 days, and 7 days. At this time, 10 μl physiological saline was administered to the control group, and Evans blue was administered at various concentrations (5, 15, and 50 μg/10 μl).

[2] = biological target: T1, vesicular nucleotide transporter (VNUT) of the dorsal root ganglia (Rattus norvegicus, UniProt P0DX21); test: Immunostaining with VNUT antibody after in vivo Evans blue injection, confocal microscopy; parameters: species or system white rat; settings: dorsal root ganglia: axon, axon terminal and cell body; 2nd day after injection (FIGS. 4A to 4C)
T1 construct: examine the expression of VNUT in the dorsal root ganglia and dorsal horn of the spinal cord; from tissue; host or cells: rat dorsal root ganglia and spinal cord (L4 to L6) sections after in vivo Evans blue injection
T1 sequence (P0DX21 1-447): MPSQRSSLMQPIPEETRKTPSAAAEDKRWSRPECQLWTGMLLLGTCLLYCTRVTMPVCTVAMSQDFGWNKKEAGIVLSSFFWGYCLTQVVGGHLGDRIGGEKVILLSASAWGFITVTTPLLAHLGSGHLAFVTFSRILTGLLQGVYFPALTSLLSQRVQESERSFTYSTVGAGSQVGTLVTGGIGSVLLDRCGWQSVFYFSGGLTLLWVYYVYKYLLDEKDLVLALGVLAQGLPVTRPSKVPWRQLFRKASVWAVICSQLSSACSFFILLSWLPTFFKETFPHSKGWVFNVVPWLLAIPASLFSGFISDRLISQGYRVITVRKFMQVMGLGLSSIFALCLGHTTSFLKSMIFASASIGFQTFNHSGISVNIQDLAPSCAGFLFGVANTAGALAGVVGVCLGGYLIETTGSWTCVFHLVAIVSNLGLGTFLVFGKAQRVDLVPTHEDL
Description: To verify targeting VNUT of the dorsal root ganglia and dorsal horn of the spinal cord by Evans blue in vivo, VNUT was immune-stained, and Evans blue was administered in vivo to confirm whether it was targeted.
(§1) Specifically, it was immune-stained with VNUT antibody (green) to examine the expression of VNUT in the dorsal root ganglia and dorsal horn of the spinal cord. Evans blue was injected on the 7th day after the pain model surgery. On 2nd day after the injection of Evans blue, the white rat was anesthetized by intraperitoneal injection of sodium pentobarbital (100 mg/Kg). Then the phosphate buffer solution (PBS, pH 7.4) was intracardiac-perfused to entirely remove the blood, followed by perfusion with 4% paraformaldehyde to fix the result. Then, the spinal cord sites (L4 to L6) were carefully taken out, post-fixed in the same fixative overnight, and immersed in a 30% sucrose solution. Then, the tissues obtained by frozen sectioning of the spinal cord at […] were subjected to the normal serum blocking and then incubated overnight at 4° C. with VNUT (1:500; ABN 83; milipore) antibody. The next day, the result was washed with PBS and incubated with the cy2-conjugated secondary antibody (1:400) for 2 hours, and then the nuclear thereof was stained with DAPI. The tissues were attached to a slide glass and photographed using a confocal microscope (Leica, TCS SP8).

[3] = tested on: neurons of the dorsal horn in the spinal cord; test: NeuN immunostaining of spinal cord tissue injected with Evans blue; assay type: in vivo, white rat; settings: dorsal horn of the spinal cord (FIGS. 5A to 5C)
Description: as §1
To determine whether Evans Blue targeted the neurons of the dorsal horn in the spinal cord, the spinal cord tissue injected with Evans blue was stained with NeuN, a marker for identifying neurons. […]

[4] = tested on: excitatory neurons located in the dorsal horn of the spinal cord; test: vGluT2 immunostaining of spinal cord tissue injected with Evans blue; assay type: in vivo, white rat; settings: dorsal horn laminas I and II (FIGS. 5D to 5F)
[5] = tested on: inhibitory neurons distributed in laminas I and II; test: Calretinin immunostaining of spinal cord tissue injected with Evans blue; assay type: in vivo, white rat; settings: laminas I and II (FIG. 4G, FIGS. 5G to 5I)
[6] = tested on: microglia cells present in the dorsal horn of the spinal cord; test: Iba-1 immunostaining of spinal cord tissue injected with Evans blue; assay type: in vivo, white rat; settings: laminas I to III (FIGS. 6A to 6C)
astrocytes = test: GFAP immunostaining of spinal cord tissue injected with Evans blue; assay type: in vivo, white rat; settings: FIGS. 6D to 6F

Cc1cc(-c2ccc(/N=N/c3ccc4c(S(=O)(=O)O)cc(S(=O)(=O)O)c(N)c4c3O)c(C)c2)ccc1/N=N/c1ccc2c(S(=O)(=O)O)cc(S(=O)(=O)O)c(N)c2c1O [Evans blue]
intensity of pain (pain threshold) than before Evans blue treatment (0D) ([1]; 5 μg intrathecal, on the 2nd and 3rd day (p<0.05)): significant increase | intensity of pain (pain threshold) than before Evans blue treatment (0D) ([1]; 15 μg intrathecal, after 2 hours and the 1st day (p<0.05)): significant increase | intensity of pain (pain threshold) than before Evans blue treatment (0D) ([1]; 50 μg intrathecal, after 2 hours and the 1st day (p<0.01), the 2nd day (p<0.001), the 3rd day, the 5th day (p<0.05)): significant increase | intensity of pain (pain threshold) compared to the control group treated with physiological saline ([1]; 50 μg intrathecal, on the 2nd day (p<0.001)): significant increase | analgesic effect on pain (pain threshold, von Frey filament test) ([1]; SNL rats, intrathecal injection on day 7 after surgery, 5, 15 and 50 μg/10 μl, versus control group treated only with physiological saline): overall increased meaningfully | time of peak analgesic effect ([1]; after intrathecal injection, gradually decreased thereafter): 3 days | overlap of Evans blue signal with VNUT expression [2]: overlaps | overlap of NeuN (neuron marker) signals with Evans blue [3]: most signals of NeuN, which is a neuron marker, overlapped | targeting of excitatory neurons (vGluT2 stained around cell bodies of neurons targeted by Evans blue) [4]: targeted excitatory neurons | overlap of calretinin (inhibitory neurons) with Evans blue [5]: did not overlap | overlap of Iba-1 (microglial cell marker) signal with Evans blue signal [6]: partially overlapped | overlap of GFAP (astrocyte marker) signal with Evans blue (astrocytes): did not overlap
